Values joined by “and” are separate entries in the source; they are usually repeats but may differ in a detail not shown here. Equal values may be shown once. Where a name gives a salt, the structure may show the parent alone. Read-outs that look alike come from different tables or passages of the source.
How the values were obtained:
MV-4-11 = test: Antiproliferation assay (Assay 7), MV-4-11; assay type: cell-based; conditions: CellTiter-Glo, several values per example
How it was run: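 Proliferation was read by CellTiter-Glo luminescence after 72 hours of compound treatment at 37° C. The read was referenced to a parallel plate measured at time zero.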

BCL-XL = BCL-XL (Homo sapiens (Human), UniProt Q07817); test: Protein-protein interaction assay BCL-XL/Bad BH3 peptide (BCL-XL assay, TR-FRET); assay type: binding; conditions: His-BCL-XL / Bad BH3 peptide, median
Procedure: Assay 2 Protein-Protein Interaction Assay: BCL-XL/Bad BH3 Peptide (BCL-XL Assay)
The dose-dependent inhibition by the compounds described in this invention of the interaction between BCL-XL and the BH3 domain of Bad (both human) was determined using a steady state binding competition assay with time-resolved fluorescence energy transfer (TR-FRET) readout. For that purpose BCL-XL (amino acids 1-212, C-terminal fused to a hexahistidine (6×His) tag (SEQ ID 3) and a synthetic Bad BH3-derived peptide of sequence Biotin-PEG2-PEG2-NLWAAQRYGRELRR-Nle-SDEFVDSFKK-amide (SEQ ID 4) served as protein receptor and tracer ligand respectively. The recombinant BCL-XL protein (expressed in E. coli) was purchased from BPS Bioscience (San Diego, Calif., USA). The Bad BH3-derived peptide can be obtained from e.g. Biosyntan (Berlin, Germany).
In the assay 11 different concentrations of each compound (0.1 nM, 0.33 nM, 1.1 nM, 3.8 nM, 13 nM, 44 nM, 0.15 μM, 0.51 μM, 1.7 μM, 5.9 μM and 20 μM) were typically measured as duplicates in the same microtiter plate. For that, 100-fold concentrated DMSO solutions were prepared by serial dilutions (1:3.4) of a 2 mM stock solution in a clear, 384-well microtiter plate (Greiner Bio-One, Frickenhausen, Germany). From there, 50 nl were transferred in a dark test plate (Greiner Bio-One, Frickenhausen, Germany). The assay was initiated by addition of 2 μl of a 2.5-fold concentrated His-BCL-XL solution (usually for a 1 nM end concentration in 5 μl reaction volume) in aqueous assay buffer [50 mM Tris/HCl pH 7, 100 mM sodium chloride (NaCl), 50 mM potassium fluoride (KF), 0.005% Tween-20, 2 mM DTT, 0.1% bovine gamma globulin (BGG)] to the compounds in the assay plate. This was followed by a 10-minute incubation step at 22° C. for pre-equilibration of the putative complex between His-BCL-XL and the compounds. After that, 3 μl of a 1.67-fold concentrated solution (in assay buffer) consisting of Bad BH3-derived peptide (1 nM end concentration) and TR-FRET detection reagents [1.67 nM anti-His-Eu cryptate and 1.67 nM streptavidin-XL665 (both from Cisbio Bioassays, Codolet, France)], were added.
The mixture was incubated in the dark for one hour at 22° C. and then overnight at 4° C. The formation of BCL-XL/Bad complexes was determined by measuring the resonance energy transfer of the anti-His- Eu-cryptate antibody to the streptavidin-XL665 present in the reaction. For that purpose, the fluorescence emission at 620 nm and 665 nm after excitation at 330-350 nm was measured in a TR-FRET measuring instrument, for instance a Rubystar or a Pherastar (both from BMG Lab Technologies, Offenburg, Germany) or a Viewlux (Perkin-Elmer). The ratio of the emission at 665 nm and at 622 nm was used as indicator of the amount of BCL-XL/Bad complexes present.
The resulting data (ratio) were normalized, taking 0% inhibition as the mean value of control measurements (usually 32 data points) where all reagents were included. In this case 50 nl DMSO were used instead of compounds. A 100% inhibition corresponded to the mean value of control measurements (usually 32 data points) where all reagents except BCL-XL were included. IC50 values were determined by regression analysis based on a 4 parameter equation (minimum, maximum, IC50, Hill; Y=Max+(Min−Max)/(1+(X/IC50)^HiII) using the Screener Software (Genedata).

[1] = Homo sapiens, MV4-11, 72 h, read-out: Antiproli MV-4-11 [M] IC50
[2] = 72 hours, read-out: Antiproli MV-4-11 [M] IC50

Sequence of BCL-XL (Q07817 other isoform, or with tags, fused parts or gaps): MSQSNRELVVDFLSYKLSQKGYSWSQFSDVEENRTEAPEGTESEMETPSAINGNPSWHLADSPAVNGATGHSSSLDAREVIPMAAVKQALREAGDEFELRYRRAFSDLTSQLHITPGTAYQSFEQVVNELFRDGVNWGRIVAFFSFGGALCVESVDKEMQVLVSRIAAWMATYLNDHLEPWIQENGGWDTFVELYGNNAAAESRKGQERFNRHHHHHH

Row | SMILES | IC50 (MV-4-11; [1]) | IC50 (BCL-XL) | further results
1 | Cc1c2c(nn1C)CN(C)S(=O)(=O)CCCn1c(C(=O)O)c(CCCOc3ccc(F)c4ccccc34)c3ccc(F)c-2c31 [Example 30, (rac)-13-Fluoro-1-(34(4-fluoronaphthalen-1-yl)oxy)propyl)-8,11,12-trimethyl-5,6,9,11-tetrahydro-4H,8H-pyrazolo[3′,4′:4,5][1]thia[2,8]diazacycloundecino[6,7,8-hi]indole-2-carboxylic acid 7,7-dioxide] | 3.5e-06 M | > 20 µM | –
2 | CCc1c2c(nn1C)CN(C)S(=O)(=O)CCCn1c(C(=O)O)c(CCCOc3cc(C)c(Cl)c(C)c3)c3ccc(F)c-2c31 (racemic) [Example 33, (rac)-1-(3-(4-Chloro-3,5-dimethylphenoxy)propyl)-12-ethyl-13-fluoro-8,11-dimethyl-5,6,9,11-tetrahydro-4H,8H-pyrazolo[3′,4′:4,5][1]thia[2,8]diazacycloundecino[6,7,8-hi]indole-2-carboxylic acid 7,7-dioxide] | 4.62e-06 M | > 20 µM | –
3 | Cc1c2c(nn1C)CN(C)S(=O)(=O)CCCn1c(C(=O)O)c(CCCOc3cccc4cc(F)ccc34)c3ccc(F)c-2c31 (racemic) [Example 25, (rac)-13-Fluoro-1-(3-((6-fluoronaphthalen-1-yl)oxy)propyl)-8,11,12-trimethyl-5,6,9,11-tetrahydro-4H,8H-pyrazolo[3′,4′:4,5][1]thia[2,8]diazacycloundecino[6,7,8-hi]indole-2-carboxylic acid 7,7-dioxide] | 1.73e-06 M | > 20 µM | –
4 | CCc1c2c(nn1C)CN(CCCN1CCOCC1)S(=O)(=O)CCCn1c(C(=O)O)c(CCCOc3cccc4ccccc34)c3cccc-2c31 (racemic) [Example 15, (rac)-12-Ethyl-11-methyl-8-(3-morpholinopropyl)-1-(3-(naphthalen-1-yloxy)propyl)-4,5,6,8,9,11-hexahydropyrazolo[3′,4′:4,5][1,2,8]thiadiazacycloundecino[6,7,8-hi]indole-2-carboxylic acid 7,7-dioxide 2,2,2-trifluoroacetic acid salt] | 9.37e-06 M | > 20 µM | IC50 (MV-4-11; [2]): 1.04e-05 M
5 | Cc1c2c(nn1C)CN(CCN1CCOCC1)S(=O)(=O)CCCn1c(C(=O)O)c(CCCOc3cccc4ccccc34)c3cccc-2c31 (racemic) [Example 1, (rac)-2,3-Dimethyl-14-[2-(morpholin-4-yl)ethyl]-7-{3-[(naphthalen-1-yl)oxy]propyl}-13,13-dioxo-10,11,12,13,14,15-hexahydro-2H-13λ^6-pyrazolo[3′,4′:4,5][1,2,8]thiadiazacycloundecino-[6,7,8-hi]indole-8-carboxylic acid] | 1.73e-05 M | > 20 µM | IC50 (MV-4-11; 72 hours, listed as 01, read-out: Antiproli MV-4-11 [M] IC50): 1.8e-05 M and 2.38e-05 M
6 | CCc1c2c(nn1C)CN(C)S(=O)(=O)CCCn1c(C(=O)O)c(CCCOc3cccc4ccccc34)c3ccc(Cl)c-2c31 [Example 20, (rac)-13-Chloro-12-ethyl-8,11-dimethyl-1-(3-(naphthalen-1-yloxy)propyl)-5,6,9,11-tetrahydro-4H,8H-pyrazolo[3′,4′:4,5][1]thia[2,8]diazacycloundecino[6,7,8-hi]indole-2-carboxylic acid 7,7-dioxide] | 1.31e-06 M | > 20 µM | –
7 | CCc1c2c(nn1C)CN(C)S(=O)(=O)CCCn1c(C(=O)O)c(CCCOc3cccc4cc(F)ccc34)c3ccc(F)c-2c31 (racemic) [Example 7, (rac)-12-Ethyl-13-fluoro-1-(3-((6-fluoronaphthalen-1-yl)oxy)propyl)-8,11-dimethyl-5,6,9,11-tetrahydro-4H,8H-pyrazolo[3′,4′:4,5][1]thia[2,8]diazacycloundecino[6,7,8-hi]indole-2-carboxylic acid 7,7-dioxide] | 1.35e-06 M | > 20 µM | IC50 (MV-4-11; 72 hours, listed as 07, read-out: Antiproli MV-4-11 [M] IC50): 2.15e-06 M
8 | CCc1c2c(nn1C)CN(C)S(=O)(=O)CCCn1c(C(=O)O)c(CCCOc3cccc4cc(F)ccc34)c3ccc(F)c-2c31 (single isomer, unassigned; enantiomer 2) [Example 9, (−)-3-Ethyl-4-fluoro-7-{3-[(6-fluoronaphthalen-1-yl)oxy]propyl}-2,14-dimethyl-13,13-dioxo-10,11,12,13,14,15-hexahydro-2H-13λ^6-pyrazolo[3′,4′:4,5][1,2,8]thiadiazacycloundecino-[6,7,8-hi]indole-8-carboxylic acid (Enantiomer 2)] | – | > 20 µM | IC50 (MV-4-11; 72 hours, listed as 09, read-out: Antiproli MV-4-11 [M] IC50): 1.98e-05 M
9 | CCc1c2c(nn1C)CNS(=O)(=O)CCCn1c(C(=O)O)c(CCCOc3cccc4ccccc34)c3cccc-2c31 (racemic) [Example 17, (rac)-12-Ethyl-11-methyl-1-(3-(naphthalen-1-yloxy)propyl)-4,5,6,8,9,11-hexahydropyrazolo[3′,4′:4,5][1,2,8]thiadiazacycloundecino[6,7,8-hi]indole-2-carboxylic acid 7,7-dioxide] | 1.65e-05 M | > 20 µM | –
10 | CCc1c2c(nn1C)CN(C)S(=O)(=O)CCCn1c(C(=O)O)c(CCCOc3cccc4c3CCC4)c3ccc(F)c-2c31 (racemic) [Example 32, (rac)-1-(3-((2,3-Dihydro-1H-inden-4-yl)oxy)propyl)-12-ethyl-13-fluoro-8,11-dimethyl-5,6,9,11-tetrahydro-4H,8H-pyrazolo[3′,4′:4,5][1]thia[2,8]diazacycloundecino[6,7,8-hi]indole-2-carboxylic acid 7,7-dioxide] | 2.2e-06 M | > 20 µM | IC50 (MV-4-11; [2]): 1.14e-06 M
11 | CCc1c2c(nn1C)CN(C)S(=O)(=O)CCCn1c(C(=O)O)c(CCCOc3ccc(F)c4ccccc34)c3ccc(Cl)c-2c31 [Example 24, (rac)-13-Chloro-12-ethyl-1-(34(4-fluoronaphthalen-1-yl)oxy)propyl)-8,11-dimethyl-4,5,6,8,9,11-hexahydropyrazolo[3′,4′:4,5][1,2,8]thiadiazacycloundecino[6,7,8-hi]indole-2-carboxylic acid 7,7-dioxide] | 2.5e-06 M | > 20 µM | –
12 | CCc1c2c(nn1C)CN(CCCN1CCCC1=O)S(=O)(=O)CCCn1c(C(=O)O)c(CCCOc3cccc4ccccc34)c3cccc-2c31 (racemic) [Example 13, (rac)-12-Ethyl-11-methyl-1-(3-(naphthalen-1-yloxy)propyl)-8-(3-(2-oxopyrrolidin-1-yl)propyl)-5,6,9,11-tetrahydro-4H,8H-pyrazolo[3′,4′:4,5][1]thia[2,8]diazacycloundecino[6,7,8-hi]indole-2-carboxylic acid 7,7-dioxide] | 1.62e-05 M | > 20 µM | –
13 | Cc1c2c(nn1C)CN(C)S(=O)(=O)CCCn1c(C(=O)O)c(CCCOc3cccc4ccccc34)c3ccc(Cl)c-2c31 (racemic) [Example 4, (rac)-4-Chloro-2,3,14-trimethyl-7-{3-[(naphthalen-1-yl)oxy]propyl}-13,13-dioxo-10,11,12,13,14,15-hexahydro-2H-13λ^6-pyrazolo[3′,4′:4,5][1,2,8]thiadiazacycloundecino-[6,7,8-hi]indole-8-carboxylic acid] | – | > 20 µM | IC50 (MV-4-11; 72 hours, listed as 04, read-out: Antiproli MV-4-11 [M] IC50): 1.58e-06 M and 1.47e-06 M and 1.25e-06 M
